Conditions: acidic group
`O=CC1c2ccccc2-c2ccccc21` showed a pKa of 7.4.

Same assay, conditions: basic group
Work on `Nc1cncn1[C@H]1O[C@@H](CO)[C@H](O)[C@@H]1O` yielded a pKa of 6.05.
Compound `Brc1cncc2ccccc12` has a pKa of 3.54.
`[NH3+][C@@H](Cc1c[nH]cn1)C(=O)N[C@@H](Cc1c[nH]cn1)C(=O)[O-]` gave a pKa of 6.8.
Work on `CNc1nc(C)nc2c1cnn2C` yielded a pKa of 5.
Compound `O=C([O-])c1nccc2ccccc12` has a pKa of 4.97.
With `CN(C)Cc1ccc(O)c(O)c1O` the pKa was 8.26.
Compound `Cc1nn(C)c(C)c1Cl` has a pKa of 1.96.
Compound `N#CC(C#N)=NNc1ccc(Cl)cc1` has a pKa of -0.79.
`CNc1c(C)cccc1C` showed a pKa of 6.12.
With `CSc1nc(N)c2c(ncn2[C@H]2O[C@H](CO)[C@@H](O)[C@H]2O)n1` the pKa was 3.1.
Work on `Cc1cccc(CN)c1` yielded a pKa of 9.37.
`CN(C)CCCCCCNC(=O)/C=N/[O-]` showed a pKa of 10.4.
Compound `Cc1cc(N)cc(C)c1C` has a pKa of 5.15.
For `CCCCNCC/C(N)=N/O`, the pKa was 9.6.
`C=C[C@]1(O)C[C@H](C)N[C@@H]2CCCC[C@H]21` gave a pKa of 9.83.
`CCCNC(=O)[C@H](Cc1c[nH]cn1)NC(=O)c1cccc(CNCCN)n1` showed a pKa of 9.3.
Compound `CC(=O)N(N)C1CCN(C)CC1` has a pKa of 8.7.
In the case of `CC(C)NNC1CCN(C(C)C)CC1`, the pKa is reported as 9.55.
With `C[C@H](N)[C@H](O)c1ccccc1` the pKa was 8.81.
Compound `COc1cccc2cccnc12` has a pKa of 4.88.
In the case of `OCCc1cnc(P(c2[nH]c(CCO)c[nH+]2)c2[nH]c(CCO)c[nH+]2)[nH]1`, the pKa is reported as 5.75.
Work on `Oc1cncnc1` yielded a pKa of 1.87.
In the case of `CCCCC[C@H](C)N`, the pKa is reported as 10.8.
With `NC(=O)c1cc(-c2ccccc2)nnc1NCC[NH+]1CCOCC1` the pKa was 2.5.
For `CC(O)CN(Cc1ccccc1)CC(C)O` (centres undefined), the pKa was 7.5.
`O=[N+]([O-])c1ccc2cccnc2c1O` gave a pKa of 1.94.
`Nc1ccccc1NC(=O)c1ccc([N+](=O)[O-])cc1` gave a pKa of 3.01.
`NCCC#CC#CCCC(=O)[O-]` gave a pKa of 9.27.
In the case of `CCCCCCCCCCCCCCCC[NH+](CCCCCCCCCCCCCCCC)CCn1ccnc1`, the pKa is reported as 4.
For `COc1ccc2c(c1)CCN2`, the pKa was 6.1.
`CC1CCN(C(C)C=C(c2cccs2)c2cccs2)CC1` (centres undefined) showed a pKa of 8.2.
`COc1cccc(N)c1` showed a pKa of 4.23.
Compound `CCCCCCCCCCNc1ccccc1` has a pKa of 4.56.
In the case of `CC1CCN(O)C1(C)C` (centres undefined), the pKa is reported as 5.9.
With `O=C([O-])CN=C1CCCC1` the pKa was 8.72.
`CC(C)N/C=N/c1ccc(-c2c[nH]cn2)cc1` showed a pKa of 8.88.
For `CN1CC[C@]23c4c5ccc(OCc6ccccc6)c4O[C@H]2[C@@H](O)C=C[C@H]3[C@H]1C5`, the pKa was 8.07.
`O=C1C[C@@H]2OCC=C3CN4CC[C@@]56c7ccccc7N1[C@H]5C2[C@@]3(S(=O)(=O)[O-])C[C@H]46` (some centres undefined) gave a pKa of 7.53.
For `COc1ccc(C(O)CN)cc1` (centres undefined), the pKa was 9.02.
With `Cc1cc(C)nc(NS(=O)(=O)c2ccc(N)cc2)n1` the pKa was 2.35.
With `c1ccc([C@@H]2CN3CCC[C@@H]3c3ccccc32)cc1` the pKa was 9.12.
In the case of `CNCC#N`, the pKa is reported as 5.26.
With `[O-][n+]1ccc2ccccc2c1` the pKa was 1.01.
`Cc1ncc(CO)c(CN)c1[O-]` showed a pKa of 10.3.
Work on `Cc1cc(C)n(C)n1` yielded a pKa of 3.96.
Compound `CNCC(=O)Nc1c(C)cccc1C` has a pKa of 7.99.
Compound `c1ccc(-n2cnnn2)cc1` has a pKa of -3.41.
Work on `O[C@H]1[C@H](O)[C@@H](n2cnc3ccccc32)OC[C@@H]1O` yielded a pKa of 3.92.
`COc1ccc(-c2cc3cnccc3[nH]2)c(OC)c1` showed a pKa of 8.49.
`CCN(CC)CC1CO1` (centres undefined) gave a pKa of 8.55.
`[NH3+]C(Cc1cnc[nH]1)C(=O)NCC(=O)[O-]` (centres undefined) showed a pKa of 6.67.
`O[C@H]1[C@H](O)[C@@H](n2cnc3ccccc32)OC[C@H]1O` gave a pKa of 4.15.
Work on `c1cc(N2CCCC2)c2c(N3CCCC3)cccc2c1` yielded a pKa of 9.97.
In the case of `NCCc1c[nH]cn1`, the pKa is reported as 9.87.
For `NC(=O)CCCc1ccncc1`, the pKa was 5.64.
With `CC[NH+](CC)CCNc1cc(C)nc(N)n1` the pKa was 7.6.
`CCN(CC)Cc1cc(Cl)cc(Cl)c1[O-]` showed a pKa of 11.6.
`CC1=CC(C)=N/C1=C/c1[nH]c(C)cc1C` showed a pKa of 8.4.
Compound `COc1cc(O)ccc1C(=N)c1ccccc1` has a pKa of 5.99.
Work on `Cc1nccc2c1[nH]c1ccccc12` yielded a pKa of 6.55.
For `Cc1ccc(-c2ncc(-c3ccccc3)o2)cc1`, the pKa was 1.04.
With `C1CN(CC2CO2)CCO1` (centres undefined) the pKa was 5.88.
In the case of `Cc1cc2nc3ccc(N(C)C)cc3nc2cc1N`, the pKa is reported as 7.18.
Work on `C=CCN(CC=C)CCCN(CC=C)CC=C` yielded a pKa of 8.8.
`CN(C)c1ccc(/N=N/c2ccncc2)cc1` showed a pKa of 5.8.
In the case of `Cc1cccc(/N=C/N(C)C)c1`, the pKa is reported as 9.11.
For `Cc1c[nH+]c(C)cn1`, the pKa was -4.42.
Work on `Cc1ncnc2c(O)cccc12` yielded a pKa of 2.9.
In the case of `CC(C#N)CN` (centres undefined), the pKa is reported as 7.75.
`COc1ccc(-c2nc3ncccc3[nH]2)c(OC)c1` showed a pKa of 4.63.
For `c1ccnnc1`, the pKa was 2.33.
Compound `CSc1ccc2ccccc2n1` has a pKa of 3.71.
`Cc1nnc(C)c(C)n1` showed a pKa of 2.85.
For `Cc1n[nH]c2c(Nc3ccccc3)ncnc12`, the pKa was 4.61.
In the case of `CN(C)Cc1cc(C(C)(C)C)ccc1O`, the pKa is reported as 8.55.
Compound `Cc1ccccc1CN(C)C` has a pKa of 8.71.
Work on `NCCCCCc1ccncc1` yielded a pKa of 10.3.
`OCNc1nc(NCO)nc(NCO)n1` gave a pKa of 4.05.
With `Nc1ccc2cc3ccc(N)cc3nc2c1` the pKa was 9.65.
`NCCCC#CC#CCCC(=O)[O-]` gave a pKa of 9.94.
Compound `Nc1ncc2ncn([C@H]3O[C@@H](CO)[C@H](O)[C@@H]3O)c2n1` has a pKa of 3.4.
For `COc1c(Cl)cc(Cl)c([O-])c1C(=O)NC1CCN(C)CC1`, the pKa was 9.12.
`O=CC1c2ccccc2-c2ccccc21` showed a pKa of 6.2.

From the pKa sets of Baltruschat and Czodrowski (2020)
